Measurements as given in patent publication US20220175882A1, “BETA-CASEIN A2 AND REDUCING OR […] OF LACTOSE INTOLERANCE” (THE A2 MILK COMPANY LIMITED, priority 2013, published 2022).
Entries after “also recorded” stand apart in the source; their conditions may differ. Where a SMILES comes first, the peptide text is derived from it.

Columns and labels:
[1] = system: SH-SY5Y human neuronal cells
Description: (§1) Pre-treatment in cells was performed for different time points for 30 min, 4, 24 and 48 h as described previously (Trivedi M., et al.; Mol. Pharm., 2014). SH-SY5Y human neuronal cells and Caco-2 Gut epithelial cells were plated in six-well plates and were pretreated with drugs and incubated for various times prior to measuring uptake. Media were aspirated and cells were washed with 600 μL of HBSS at 37° C. Non-radioactive HBSS was aspirated, replaced with 600 μL of 37° C. HBSS containing [^35S]-cysteine (1 μCl/1 mL), 10 μM unlabelled cysteine and 100 μM DTT, and the cells were incubated for 5 min. The [^35S]-cysteine/HBSS mixture was aspirated and treatment was terminated by two washes with ice-cold HBSS. Cells were then lysed with 600 μL of dH2O, scraped, collected in 1.5 mL microcentrifuge tubes, and sonicated for 10 s. 100 μL of each sample was aliquoted for protein assay. 200 μL of each sample (in triplicate) was aliquoted into scintillation vials with 4 mL of scintillation fluid, vortexed, and counted for radioactivity (normalised against protein content). […] The symbol * used in these figures indicates a statistically significant difference (p<0.05) compared against the untreated control, and the symbol # indicates a statistically significant difference (p<0.005) compared against the untreated control.

[2] = system: Caco-2 Gut epithelial cells; conditions: read-out: IC50, inhibition of cysteine uptake; GI epithelial cells (FIG. 4)
Description: as §1

SH-SY5Y cells = experiment: DNA methylation by MBD-seq (differentially methylated transcripts); format: cell-based, human; conditions: cells treated 4 hours with 1 μM BCM-7; FDR<0.1, p<0.05
Description: Global DNA methylation levels induced by BCM-7 were investigated using methyl-CpG binding domain (MBD) protein-enriched genome sequencing (MBD-seq) as described previously (Trivedi M., et al., Mol. Pharm. 2014), whereas mRNA translation microarray data was obtained using Agilent V3 microarray chip, from non-treated control SH-SY5Y cells and cells treated for 4 hours with 1 μM BCM-7.
Genomic DNA was extracted from samples with the Easy DNA kit (Invitrogen K1800-01) using the appropriate protocol for cell lines. Fragmentation was performed on Covaris S2 with the following settings: duty cycle 10%, intensity 5, 200 cycles per burst during 200 sec. Fragments were obtained having an average length of 200 bp. The power mode is frequency sweeping, temperature 6-8° C., water level 12. A maximum of 5 μg was loaded in 130 μl Tris-EDTA in a microtube with AFA intensifier. For samples with less DNA input (down to 500 ng) the DNA was diluted 1:5 in TrisEDTA. DNA with an input from 5-3 μg was analysed on the Agilent 2100 using a DNA 1000 chip. DNA with an input lower than 3 μg was concentrated in a rotary evaporator to 25 μl and the fragment distribution was checked on a high sensitivity DNA chip. Methylated DNA was captured using the MethylCap kit (Diagenode, Belgium). The yield was typically between 0.5 and 8 ng of total captured DNA. Fragments were subsequently sequenced using an Illumina Genome Analyzer II. The concentrations of fragmented and captured DNA were determined on a Fluostar Optima plate reader with the Quant-iT PicoGreen dsDNA Assay Kit (Invitrogen P7589) at 480/520 nm.
To prepare the DNA library, a DNA Sample Prep Master Mix Set 1 (NEB E6040) was used in combination with a Multiplexing Sample Preparation Oligo Kit (96 samples, Illumina PE-400-1001). The entire fragmented DNA was utilised and followed the NEB protocols, using the multiplexing sequencing adapters provided in the Multiplexing Sample Preparation Oligo Kit. Size selection of the library was carried out on a 2% agarose gel (Low Range Ultra Agarose Biorad 161-3107). […] A fragment of 300 bps +/−50 bps was excised and eluted on a Qiagen Gel Extraction Kit column (Qiagen 28704) and eluted in 23 μl EB.
The Illumina library amplification index protocol was used with the following alterations: 22 μl DNA was used and performed 21 cycles run. The sample was purified on a Qiaquick PCR Purification column (Qiagen 28101) and eluted in 50 μl EB, 1:5 diluted, and concentrated in a rotary evaporator to 10 μl. 1 μl was applied to a Agilent 2100 HS DNA chip and the concentration was determined by smear analysis on the Agilent 2100. The samples were diluted to 10 nM. After denaturation with NaOH the samples were diluted to […]. The Paired-End flow cell was prepared according to the Cluster Station User Guide. […]

SH-SY5Y neuronal cells = experiment: Intracellular cysteine, GSH and SAM/SAH levels by HPLC with electrochemical detection; format: cell-based, human
Description: Media was aspirated and the cells were washed twice with 1 mL of ice cold HBSS. HBSS was aspirated and 0.6 mL ice cold dH2O was added to the cells. The cells were scraped from the flask/dish and suspended in dH2O. […] The remaining lysate was added to a microcentrifuge tube and an equal volume of 0.4 N perchloric acid was added, followed by incubation on ice for 5 min. Samples were centrifuged at 5,000×g and the supernatant transferred to new microcentrifuge tubes.
The separation of redox and methylation pathway metabolites was accomplished using an Agilent Eclipse XDB-C8 analytical column (3×150 mm; 3.5 μm) and an Agilent Eclipse XDB-C8 (4.6×12.5 mm; 5 μm) guard column. […] The flow rate was initially set at 0.6 mL/min and a step gradient was used: 0-9 min 0% B, 9-19 min 50% B, 19-30 min 50% B. The column was then equilibrated with 5% B for 12 min prior to the next run. Temperature was maintained at 27° C. […] Sample concentrations were determined from the peak areas of metabolites using standard calibration curves and ESA-supplied HPLC software. Sample concentrations were normalised against protein content. In some cases samples were diluted in mobile phase as needed or up to 50 μl of sample was injected to assure that thiol levels were within the range of the standard curve.

SMILES: CC[C@H](C)[C@H](NC(=O)[C@@H]1CCCN1C(=O)CNC(=O)[C@@H]1CCCN1C(=O)[C@H](Cc1ccccc1)NC(=O)[C@@H]1CCCN1C(=O)[C@@H](N)Cc1ccc(O)cc1)C(=O)O [BCM-7, beta-casomorphin-7] (H-YPFPGPI-OH; N-terminus and C-terminus assumed)
- Receptor mediating the effect on cysteine uptake ([1]; in presence of CTAP (selective μ-antagonist) or naltrindole (delta antagonist), FIG. 6): μ-opioid receptor mediated
- Time course of inhibition of cysteine uptake ([1]; neuronal cells and GI epithelial cells (FIG. 5), 30 min to 48 h exposure): fully developed after 30 minutes and was sustained through 48 hours
- IC50 ([1]; read-out: IC50, inhibition of cysteine uptake, neuronal cells (FIG. 4)): 1.31 nM
- IC50 [2]: 15.9 nM
- Differentially methylated transcripts: Galactose metabolism (SH-SY5Y cells): GALK2 and GALR2 and GALT and GALR1 and CHST1 and NPY and PYY and GKN1
- Differentially methylated transcripts: Gastric Acid secretion (SH-SY5Y cells): SCTR and OXTR and VIPR1 and SST and PPARGC1A and PGC
- Differentially methylated transcripts: Lactose Biosynthetic pathway (SH-SY5Y cells): LGALS12; also recorded: B4GALT1; also recorded: B4GALT2
- Differentially methylated transcripts: Lactose metabolism (SH-SY5Y cells): LCT
- Cysteine and glutathione (GSH) levels (SH-SY5Y neuronal cells; 30 min, 4 h, 24 h): time-dependent decreases
- Methylation capacity (SAM/SAH ratio) (SH-SY5Y neuronal cells; different time points (FIG. 7)): affected
